Results on five molecules are retold here after PMC11400632, “Substrate selectivity and inhibition of the human lysyl hydroxylase JMJD7” (Protein Science : A Publication of the Protein Society, 2024).

The target of test [1] is T1, human JMJD7 (Homo sapiens, UniProt P0C870).
T1 construct: human JMJD7 (residues 1–316) with an N‐terminal His6‐tag; His6 (N); made in house; host or cells: Escherichia coli Rosetta (DE3)
Nature of the test: NMR assay of JMJD7-catalyzed reaction of DRG1 peptides. In kind it is biochemical. Conditions: 200 μM peptide, 10 μM JMJD7, 30 μM FAS, 200 μM 2OG, 500 μM LAA, phosphate buffer 10% D2O, pH 7.4, 1H NMR time-course. As for the experimental part:
To validate the fragmentation of the product on hydroxylation of the DRG1‐CysNH2 peptide, we performed NMR studies focusing on the appearance of small molecules, comparing the results with the DRG1‐Lys substrate. Reactions were carried out by incubating the DRG1 peptide (200 μM) in the presence or absence of enzyme (10 μM JMJD7, 30 μM FAS, 200 μM 2OG, 500 μM LAA, phosphate buffer in 10% D2O v/v, pH 7.4). […] The observation of a DRG1‐CysNH2 derived product with two methylene groups (triplets, δ ~ 3.13 ppm, δ ~ 2.75 ppm) together with spiking using a standard solution confirmed the formation of cysteamine (Figure 4c (1), Figure S35a). […] A loss in intensity of the cysteamine peaks was observed over time, possibly indicating oxidation and/or interactions with JMJD7 (Figure S35).
Stock solutions of L‐ascorbate (LAA; 500 mM), 2‐oxoglutarate (2OG; 20 mM), ferrous ammonium sulphate (FAS; 100 mM), and (trimethylsilyl)propionic‐2,2,3,3‐d 4 (TSP‐d 4; 8 mM) were freshly prepared in water on the day NMR assays were run. These stock solutions of LAA, FAS, and 2OG were diluted using aqueous buffer (50 mM sodium phosphate, pH 7.4, 10% v/v D2O) to give FAS (0.3 mM), 2OG (2 mM), and LAA (5 mM). DRG1 peptides were solubilized in buffer to a final concentration of 2 mM for use in NMR assays. […] Turnover was quantified using TSP‐d 4 as an internal standard.

Test [2] deals with T1, human JMJD7. Description: SPE-MS time-course and steady-state kinetics of JMJD7-catalyzed hydroxylation. It is filed as biochemical. The following applies: 1.0 μM peptide, 50 nM JMJD7, SPE-MS time-course. As for the experimental part:
Having shown that introduction of γ‐thialysine and γ‐azalysine residues into DRG1 peptides generates substrates that are efficiently hydroxylated by JMJD7, giving nascent products that fragment to give formylglycine, we explored whether these two peptides could compete with the DRG1‐Lys substrate for JMJD7 catalysis. The reactions of DRG1‐Lys, DRG1‐CysNH2 and DRG1‐LysN (1.0 μM) by JMJD7 (50 nM) were investigated as a function of time using SPE‐MS assays.
To quantify the relative efficiencies of DRG1‐Lys and the substrate analog DRG1‐LysE, we carried out kinetics analyses using SPE‐MS assays as the levels of JMJD7‐catalyzed hydroxylation were sufficient for these two substrates.
JMJD7 turnover assays for kinetic studies were performed in 96‐well polypropylene assay plates with 1.0 mL total reaction volume using a series of concentrations of the DRG1 peptide (0.1–5.0 μM), 2OG (20 μM), FAS (10 μM), LAA (100 μM). Reactions were initiated by the addition of JMJD7 (100 nM). MS‐analyses were performed using a RapidFire RF 365 high‐throughput sampling robot (Agilent) attached to an iFunnel Agilent 6550 accurate mass quadrupole time‐of‐flight (Q‐TOF) mass spectrometer operated in the positive ionization mode. The RapidFire RF 365 high‐throughput sampling robot was programmed to aspirate samples from the reaction mixture at the indicated time intervals. Assay samples were loaded onto a C4 solid phase extraction (SPE) cartridge and peptides were eluted using given previous protocols (Tumber et al., [2023]). The % conversion of the hydroxylation reaction were calculated from the ion chromatogram data by integrating peak areas using RapidFire Integrator 4.3.0 software (Agilent).

Test [3] deals with T1, human JMJD7. Description: LC-MS assay of JMJD7-catalyzed hydroxylation/oxidation of DRG1 peptides. It is filed as biochemical. The following applies: 10 μM 2OG. As for the experimental part: Initial assays were carried out by incubation of purified recombinant (Markolovic et al., [2018]) human JMJD7 (2 μM) in the presence of a DRG1 derived peptide (10 μM), 2OG (10 μM), ferrous ammonium sulfate (FAS, 10 μM), and L‐ascorbate (LAA, 100 μM) in Tris buffer at pH 7.5 for 2 h at room temperature. Potential conversion to a hydroxylated product (+16 Da mass shift) was monitored by liquid‐chromatography‐mass‐spectrometry (LC–MS). […] The assay results also implied that DRG1‐Orn was hydroxylated, but to a lower extent (~21%) than DRG1‐Lys. […] The alcohol‐containing peptide hydroxynorleucine (DRG1‐HNle), was hydroxylated at relatively low levels (~24%), implying that H‐bonding interactions and positive charge of the N^ɛ‐amino group of lysine are important for efficient binding and catalysis, but that a neutral alcohol can still be accommodated at the active site (Figure 3f) (Markolovic et al., [2018]).
All reagents were procured from Sigma Aldrich. 2‐Oxoglutarate (2OG, 10 mM) and L‐ascorbic acid (LAA, 50 mM) solutions were prepared freshly by dissolving the solids in deionized water. Ferrous ammonium sulfate (FAS) solution was prepared freshly by dissolving FAS at 400 mM in 20 mM HCl with subsequent dilution to 1 mM using deionized water. JMJD7 assays using DRG1 (16–40) based peptides were performed with the following conditions: (i) 2 or 5 μM JMJD7, 10 μM DRG1 peptide, 100 μM LAA, 10 μM FAS, 10 μM 2OG in mM 50 Tris‐buffer (pH 7.5), (ii) 2 μM JMJD7, 10 μM DRG1 peptide, 100 μM LAA, 10 μM FAS, 20 μM 2OG in mM 50 Tris‐buffer (pH 7.5). Reactions were initiated by addition of enzyme to the cosubstrate/substrate solution in a final reaction volume of 50 μL with 2 h incubation at room temperature. A positive control reaction containing enzyme and a validated peptide substrate was included in all screening studies. After 2 h, reactions were stopped by addition of 5 μL of 10% (v/v) LC–MS grade formic acid (Fisher Scientific) and transferred to a 96 well plate (Agilent). Intact mass peptide analysis was performed by LC–MS using an Agilent 1290 infinity II LC system equipped with an Agilent 1290 multisampler and an Agilent 1290 high speed pump and connected to an Agilent 6550 accurate mass iFunnel quadrupole time of flight (Q‐TOF) mass spectrometer. The reaction mixture (4 μL) was injected and loaded onto a ZORBAX RRHD Eclipse Plus C18 column (Agilent). Solvent A consisted of LC–MS grade water containing 0.1% (v/v) formic acid and solvent B consisted of MeCN containing 0.1% (v/v) formic acid. Peptides were separated using a step wise gradient (0 min – 95% solvent A, 1.0 min – 80% solvent A, 3.0 min – 45% solvent A, 4.0 min – 45% solvent A, 5.0 min – 0% solvent A, 6.0 min – 0% solvent A, 7.0 min – 95% solvent A). This was followed by a 3 min elution with 95% solvent A to re‐equilibrate the column. Flow rates were 0.2 mL/min. The mass spectrometer was operated in the positive ion mode with a drying gas temperature (280°C), drying gas flow rate (13 L min^−1), nebulizer pressure (40 psig), sheath gas temperature (350°C), sheath gas flow rate (12 L min^−1), capillary voltage (4000 V), nozzle voltage (1000 V). Data were analyzed using Agilent MassHunter Qualitative Analysis (Version B.07.00) software.

Test [4] deals with T1, human JMJD7. Description: Q-TOF-MS protein-observed analysis of intact JMJD7 (adduct formation). In kind it is binding. The following applies: 2 μM JMJD7, 20 μM peptide; for JMJD7-peptide adduct formation: Q-TOF-MS of intact protein. As for the experimental part: To investigate inhibition by the DRG1‐Cys/Sec peptides, we performed protein‐observed analysis of JMJD7 (2 μM) in the presence of the DRG1‐Cys/Sec peptides (20 μM) under likely non‐denaturing conditions (Figure 7g). The observed masses correspond to the JMJD7‐DRG1‐Cys (40.79 kDa) and JMJD7‐DRG1‐Sec (40.84 kDa) adducts, implying that DRG1‐Cys/Sec might inhibit JMJD7 via formation of S‐S/Se‐S bonds, plausibly with Cys132, though further work is required to validate this (Figure 7g).

The target of test [5] is human Jumonji-C (JmjC) domain-containing protein 7 (JMJD7), residues 1-316 (human) (UniProt P0C870).
The target in test [6] is T1, human JMJD7. Description: MALDI-TOF MS JMJD7 inhibition assay. It is filed as biochemical. Conditions: 10 and 50 μM peptide, DTT or TCEP (1 mM) as reductant in the reaction buffer. As for the experimental part:
Due to signal overlaps between some DRG1 peptides and the reference DRG1‐Lys substrate, we synthesized a shorter reference substrate peptide (DRG1‐Lys, residues 17–40) for use in the MS‐based inhibition assays. Synthetic DRG1 peptides (residues 16–40, 10 or 50 μM) were preincubated with JMJD7 (200 nM) for 15 min, after which time the DRG1‐Lys substrate (residues 17–40, 5 μM), 2OG (10 μM), FAS […] and LAA […] were added, and the reaction were carried out for 25 min at room temperature. Most of the DRG1 peptides were not active as JMJD7 inhibitors at 10 μM (residual activity of JMJD7 >50%) (Figure S41a,b), with exceptions including the DRG1‐Orn, DRG1‐hGln and DRG1‐4pyrA peptides.
Single point screening assays were as follows; initially, JMJD7 (200 nM) and substituted DRG1 peptide (10 or 50 μM) were incubated for 15 min, followed by the addition of a mixture of the DRG1‐Lys substrate (5 μM), 2OG (10 μM), FAS (10 μM) and LAA (100 μM) in a final volume of 50 μL in Tris‐buffer (pH 7.5) and incubated for additional 25 min at room temperature. […] Reactions were quenched by the addition of 10% (v/v) formic acid and mixed 1:1 with CHCCA matrix (1:1 v/v MeCN:H2O) then analyzed by MALDI‐TIMS‐TOF MS. JMJD7 activity was determined by calculating the integral of hydroxylated peptide and normalized to a control reaction in absence of potential inhibitory peptides. Every experiment was performed in duplicate (n = 2), error bars are reported as SE.

Test [7] deals with T1, human JMJD7. Nature of the test: MALDI-TOF MS JMJD7 inhibition assay. It is filed as biochemical.

Read-outs that look alike come from different tables or passages of the source. Ends that are not written are not given here.

T1 sequence (P0C870 whole entry, the tested form may be a part): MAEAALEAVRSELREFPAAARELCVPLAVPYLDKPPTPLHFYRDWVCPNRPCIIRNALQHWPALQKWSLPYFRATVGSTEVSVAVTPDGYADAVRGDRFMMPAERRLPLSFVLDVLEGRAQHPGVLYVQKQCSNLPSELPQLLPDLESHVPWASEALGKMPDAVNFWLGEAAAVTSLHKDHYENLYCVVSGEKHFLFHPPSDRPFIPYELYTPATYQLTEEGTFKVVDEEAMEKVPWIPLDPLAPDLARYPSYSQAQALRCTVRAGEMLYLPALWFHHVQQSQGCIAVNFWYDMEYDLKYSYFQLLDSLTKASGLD
Sequence of human Jumonji-C (JmjC) domain-containing protein 7 (JMJD7), residues 1-316 (human) (P0C870 whole entry, the tested form may be a part): as above

“ARTQKNCysNH2ATAHHLGLLKARLAKLRR [DRG1‐CysNH2, 25-mer DRG1 (16–40) peptide with γ-thialysine at position 22]”: the “time to formation of the cysteamine fragment” value in test [1] is at most 15 min. Also, in test [2], the “time to complete JMJD7-catalyzed hydroxylation” value is given as at most 4 min. The “fate of the JMJD7 C3-hydroxylation product” value in test [3] (standard conditions: 2 μM JMJD7, 10 μM peptide, 2 h) is “fragmentation to form DRG1‐formylglycine and its hydrated products”.
As to “ARTQKNSerATAHHLGLLKARLAKLRR [DRG1‐Ser, 25-mer DRG1 (16–40) peptide with Ser at position 22]”, in test [4], the JMJD7-peptide adduct formation entry is “Adduct formation was not observed”. Moreover, the “degree of oxidation (+16 Da) of cysteine/methionine analog peptides by JMJD7” value in test [3] (2 μM JMJD7, 10 μM peptide, 10 μM FAS, 100 μM LAA) is “did also not undergo oxidation”.
As for “DRG1-LysE peptide (DRG1 residues 16-40, (E)-dehydrolysine in place of Lys22)”, the Km of JMJD7-catalysed hydroxylation, steady-state kinetics by SPE-MS (0.1-5.0 μM peptide, 100 nM JMJD7) in test [5] was found to be 3.1 µM.
The term IC50 denotes the concentration that gives 50% inhibition. With “ARTQKNCATAHHLGLLKARLAKLRR-NH2 [DRG1‐Cys]”, in test [6], the “single point inhibition of JMJD7 under reducing conditions” value is reported as “lack inhibitory activity”. The “JMJD7-peptide cross-linking in the presence of DTT” value in test [4] (DTT in the buffer, Q-TOF-MS) is listed as “no cross‐linking is observed”. In addition, the JMJD7-peptide adduct formation entry in test [4] was “observed in lower extent at 1 min”. The IC50 in test [7] (200 nM JMJD7 preincubated 15 min with peptide (1 nM–150 μM), 5 μM DRG1-Lys (17–40) substrate, 10 μM 2OG, 25 min, room temperature, Tris pH 7.5, MALDI MS, duplicate (n = 2), ± SE, read-out: IC50 (JMJD7 inhibition, with 15 min preincubation)) stood at 1.25 µM; in test [7] (same assay conditions but without preincubation, read-out: IC50 (JMJD7 inhibition, without preincubation)), 16 µM.
In the case of ARTQKNKATAHHLGLLKARLAKLRR-NH2 [DRG1-Lys substrate peptide (DRG1 residues 16-40)], in test [5], the Km of JMJD7-catalysed hydroxylation, steady-state kinetics by SPE-MS (0.1-5.0 μM peptide, 100 nM JMJD7) worked out at 1.4 µM.
